From PMC5607274, “An iterative compound screening contest method for identifying target protein inhibitors using the tyrosine-protein kinase Yes” (Scientific Reports, 2017)

Molecular target: T1, human recombinant Yes [a.a. 2–543 (end)] (Homo sapiens, UniProt P07947)
T1 construct: human recombinant Yes [a.a; 2–543 (end)]; purchased BPS Bioscience 40488
Assay: ADP-Glo kinase assay, inhibition rates of Yes phosphorylation activity (first and second screening)
Assay type: biochemical
Settings: 10 μmol L−1 compound; for First screening IR (inhibition rate): mean of n = 4 wells
Procedure, shortened: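 ADP-Glo luminescence measured inhibition of human recombinant Yes (a.a. 2–543) phosphorylation activity. In the first screen, each compound ran in 4 wells and inhibition rates were averaged. The second screen retested hits as compounds dissolved from fresh powder.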

T1 sequence (P07947 2-543): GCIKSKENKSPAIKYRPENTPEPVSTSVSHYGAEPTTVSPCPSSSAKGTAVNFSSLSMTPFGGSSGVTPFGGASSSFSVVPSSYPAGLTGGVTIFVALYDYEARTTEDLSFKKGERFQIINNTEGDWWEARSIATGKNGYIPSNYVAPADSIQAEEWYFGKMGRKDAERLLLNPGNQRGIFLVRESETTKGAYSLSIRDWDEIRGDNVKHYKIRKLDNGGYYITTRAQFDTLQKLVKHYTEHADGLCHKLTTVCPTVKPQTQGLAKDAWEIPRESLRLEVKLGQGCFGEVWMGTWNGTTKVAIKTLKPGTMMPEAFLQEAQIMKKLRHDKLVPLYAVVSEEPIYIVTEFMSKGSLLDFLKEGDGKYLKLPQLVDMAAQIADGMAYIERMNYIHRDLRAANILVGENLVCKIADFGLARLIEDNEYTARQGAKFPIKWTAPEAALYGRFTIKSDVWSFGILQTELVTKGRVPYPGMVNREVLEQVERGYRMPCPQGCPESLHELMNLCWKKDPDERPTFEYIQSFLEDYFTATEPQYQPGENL

SMILES	First screening IR (inhibition rate) [%]	Second screening IR (inhibition rate) (second screening, dissolved from fresh powder, n = 4) [%]
CC1CCN(c2ccc(NC(C)C(=O)Nc3cccc([N+](=O)[O-])c3)cc2)CC1 (stereo not drawn) [Compound Z132693290]	26	–
CCN(C1CCS(=O)(=O)C1)S(C)(=O)=O (stereo not drawn) [Compound Z133704180]	8	–
CC(C)CN(C1CCS(=O)(=O)C1)S(C)(=O)=O (stereo not drawn) [Compound Z133987698]	12	–
Cl.Oc1ccc(O)c(-c2cc(-c3ccccc3Cl)c3cc(Cl)ccc3n2)c1 [Compound Z134829678]	25	–
Cc1ccc(OCCSCc2nc(N)nc(Nc3ccc(F)cc3)n2)cc1 [Compound Z135099694]	9	–
CSc1ccc(CSCc2nc(N)nc(Nc3ccc(F)cc3)n2)cc1 [Compound Z135100070]	-6	–
O=C1NC(c2ccc(OCc3cn4ccccc4n3)cc2)Nc2ccccc21 (stereo not drawn) [Compound Z135163592]	6	–
CCn1cc(C(=O)c2cc(Cl)ccc2O)cc1-c1nc2ccccc2c(=O)[nH]1 [Compound Z135358570]	7	–
CC1(CCc2ccccc2)NC(=O)N(NC(=O)c2ccc(-n3cnc4ccccc43)cc2)C1=O (stereo not drawn) [Compound Z136752996]	9	–
Cc1ccn2cc(C(=O)NCCCn3nc(C)cc3C)nc2c1 [Compound Z137367324]	2	–
CCn1c(CNc2ccc3c(C)cc(=O)oc3c2)nc2cc(S(=O)(=O)N3CCCCC3)ccc21 [Compound Z139671368]	-9	–
NC(=O)C1CCN(C(=O)CNc2cc(Cl)ccc2Sc2ccc(F)cc2)CC1 [Compound Z140497072]	-9	–
COc1ccccc1-c1nn(-c2ccccc2)cc1C(=O)N1CCN(CC(=O)N2CCCCC2)CC1 [Compound Z145138304]	15	–
Cc1ccc(C(CN2CCOCC2)NC(=O)Cn2cnc3sc(-c4ccccc4)cc3c2=O)cc1 (stereo not drawn) [Compound Z146866146]	6	–
Cc1ccc(-c2csc3ncn(CC(=O)NC(CN4CCOCC4)c4ccccc4)c(=O)c23)cc1 (stereo not drawn) [Compound Z146890674]	4	–
Cc1noc(C)c1COc1cccc(C(=O)N2CCN(Cc3cc(=O)n4ccsc4n3)CC2)c1 [Compound Z147054608]	14	–
O=C(NCCCOc1ccccc1F)c1ccc2nc[nH]c2c1 [Compound Z147064724]	0	–
CC(C)n1ncc2c(C(=O)N3CCN(CC(=O)N4CCCCC4)CC3)cc(-c3ccccc3)nc21 [Compound Z147118228]	-5	–
CCCCN(C1CCS(=O)(=O)C1)S(=O)(=O)c1ccc(Cl)c(Cl)c1 (stereo not drawn) [Compound Z147580066]	30	–
COc1ccc2c(c1)c(CC(=O)OCc1ncc(Cl)n1C)c(C)n2C(=O)c1ccc(Cl)cc1 [Compound Z148531038]	0	–
Cc1ccc(S(=O)(=O)N(C)C2(C)CCS(=O)(=O)C2)cc1C (stereo not drawn) [Compound Z150918412]	9	–

SMILES	First screening IR (inhibition rate) [%]	Second screening IR (inhibition rate) (second screening, dissolved from fresh powder, n = 4) [%]
CC(Sc1nnc(NCc2ccc(F)cc2)s1)C(=O)N1CCCCCC1 (stereo not drawn) [Compound Z151845340]	33	–
CCC(C)N(CC(=O)Nc1cccc(C)c1C)C(=O)COC(=O)c1cc(C(C)=O)cn1C (stereo not drawn) [Compound Z152371002]	-9	–
Cc1ccc(-n2c(C)nnc2SCC(=O)Nc2c(C#N)c(C)c(C)n2Cc2ccccc2)cc1 [Compound Z152755906]	5	–
CCOC(=O)c1c(C)oc2ncn(Cc3cccc(F)c3F)c(=O)c12 [Compound Z154098858]	2	–
CN1N=C(C(=O)N2CCN(S(=O)(=O)c3ccccc3C(F)(F)F)CC2)CCC1=O [Compound Z164780402]	7	–
O=C1CCc2cc(C(=O)Nc3nnc(SCc4c(Cl)cccc4Cl)s3)ccc2N1 [Compound Z164941068]	-3	–
Cc1nc(-c2ccc(CNC(=O)Cc3cccc(F)c3)o2)cs1 [Compound Z164951688]	-7	–
Cc1c(C(=O)N2CCN(C(=O)C3CCS(=O)(=O)C3)CC2)[nH]c2c1C(=O)CC(C)(C)C2 (stereo not drawn) [Compound Z164965524]	25	–
CC(=O)c1c[nH]c(C(=O)NCCc2ccc(-c3csc(C)n3)s2)c1 [Compound Z165050208]	3	–
O=C(CN1CCN(c2cc(C(=O)N3CCOCC3)c3ccccc3n2)CC1)Nc1ccccc1Cl [Compound Z165229378]	39	–
O=C(CN1CCN(c2nc(-c3ccccn3)nc3scc(-c4ccccc4)c23)CC1)N1CCCCC1 [Compound Z165261492]	13	–
O=C(CN1CCN(c2nc(-c3cccnc3)nc3scc(-c4ccccc4)c23)CC1)N1CCCCC1 [Compound Z165261498]	9	–
COc1ccc(C(N)=O)c(OCc2cc(C)cc(C)c2)c1 [Compound Z165885974]	4	–
NC(=O)c1ccc(COC(=O)CCc2ccc3ccccc3n2)c([N+](=O)[O-])c1 [Compound Z166077836]	-4	–
O=C(CCc1ccc2ccccc2n1)OCCOc1ccc(S(=O)(=O)N2CCOCC2)cc1 [Compound Z166077876]	-20	–
CNc1snc(C)c1C(=O)OCc1csc(-c2ccc(F)cc2)n1 [Compound Z166256344]	-7	–
NC(=O)CCN(C(=O)CSc1ncc2ccccn12)c1ccccc1 [Compound Z166362686]	55	–
Cl.Oc1c(-c2ccccc2)nc2ccc(Cl)cc2c1-c1ccccc1 [Compound Z166605136]	8	–
Cc1cc(C)cc(C(=O)N(c2cc(C)cc(C)c2)C2C=CS(=O)(=O)C2)c1 (stereo not drawn) [Compound Z166605882]	34	–
CC1CCC(NS(=O)(=O)c2ccc(N3CCCC(c4nnc5ccccn45)C3)c([N+](=O)[O-])c2)CC1 (stereo not drawn) [Compound Z166704886]	5	–
CCN(CC)S(=O)(=O)c1ccc(N2CCc3c(sc(N)c3C#N)C2)c([N+](=O)[O-])c1 [Compound Z166707558]	1	–

SMILES	First screening IR (inhibition rate) [%]	Second screening IR (inhibition rate) (second screening, dissolved from fresh powder, n = 4) [%]
O=C(CCc1ccc(S(=O)(=O)N2CCCC2)cc1)NCC(c1ccccc1Cl)N1CCCC1 (stereo not drawn) [Compound Z166811416]	-3	–
O=C(Cc1coc(-c2ccccc2)n1)Nc1ccc2ccccc2n1 [Compound Z167063860]	-6	–
O=C(NCCCN1CCCCC1)c1cc(-c2ccccc2)nc2c1cnn2Cc1ccncc1 [Compound Z167254296]	-28	–
COc1cc(C(=O)Nc2ccc3c(c2)NC(=O)C(C)O3)cc2c1OC(C)C2 (stereo not drawn) [Compound Z167364352]	6	–
Cc1cccc(OCCCNC(=O)c2ccc3nc[nH]c3c2)c1 [Compound Z168616264]	-4	–
O=C(CCC1NC(=O)NC1=O)Nc1ccc(Oc2ccccc2Cl)cc1 (stereo not drawn) [Compound Z168726218]	11	–
Nc1ncnc2sc3c(c12)CCN(C(=O)c1ccc2c(c1)CCC2)C3 [Compound Z168757250]	4	–
CS(=O)(=O)c1ccc(N2CCCC2)c(S(C)(=O)=O)c1 [Compound Z168801896]	13	–
COc1cc(C)c(Sc2cnc(NC(=O)c3ccc(CCl)cc3)s2)cc1C(=O)N1CCN(C(C)=O)CC1 [Compound Z168829182]	64	37
CN(C)c1nc(N)nc(COc2ccc3cc(Br)ccc3c2)n1 [Compound Z168931562]	5	–
COc1ccc2ccc(OCc3nc(N)nc(N(C)C)n3)cc2c1 [Compound Z168975100]	6	–
CC(C)=CC1C(C(=O)Nc2c(C)cc(C)cc2C)C1(C)C (stereo not drawn) [Compound Z169558548]	2	–
Cc1cc(C(=O)CCC(=O)Nc2nc3c(s2)CN(C)CC3)c(C)s1 [Compound Z169940730]	5	–
O=C1CCCCCN1CCCNC(=O)N1CCN(S(=O)(=O)c2c(Cl)cccc2Cl)CC1 [Compound Z183473124]	-3	–
O=C(Nc1nc2ccccc2[nH]1)c1cc(-c2ccccc2)n[nH]1 [Compound Z184538526]	3	–
O=C(NCC1COc2ccccc2O1)c1cccc(OCc2cn3ccccc3n2)c1 (stereo not drawn) [Compound Z185334464]	-12	–
Cn1ccnc1C(Nc1cnn(Cc2ccccc2)c(=O)c1Cl)c1ccccc1 (stereo not drawn) [Compound Z185383718]	30	–
CCN(CCNC(=O)c1[nH]c2c(c1C)C(=O)CCC2)c1cccc(C)c1 [Compound Z188949814]	-5	–
CC(C)(C)C1CCC(C(=O)N2CCC(C(=O)N3CCCCCC3)CC2)CC1 (stereo not drawn) [Compound Z191288442]	7	–
Cc1noc(C)c1CCC(=O)Nc1nc2cc(C(F)(F)F)ccc2n1Cc1ccco1 [Compound Z193270258]	0	–
